Assay [1] concerns the target T1, Androgen receptor (Rattus norvegicus) (UniProt P15207).
T1 sequence (whole entry): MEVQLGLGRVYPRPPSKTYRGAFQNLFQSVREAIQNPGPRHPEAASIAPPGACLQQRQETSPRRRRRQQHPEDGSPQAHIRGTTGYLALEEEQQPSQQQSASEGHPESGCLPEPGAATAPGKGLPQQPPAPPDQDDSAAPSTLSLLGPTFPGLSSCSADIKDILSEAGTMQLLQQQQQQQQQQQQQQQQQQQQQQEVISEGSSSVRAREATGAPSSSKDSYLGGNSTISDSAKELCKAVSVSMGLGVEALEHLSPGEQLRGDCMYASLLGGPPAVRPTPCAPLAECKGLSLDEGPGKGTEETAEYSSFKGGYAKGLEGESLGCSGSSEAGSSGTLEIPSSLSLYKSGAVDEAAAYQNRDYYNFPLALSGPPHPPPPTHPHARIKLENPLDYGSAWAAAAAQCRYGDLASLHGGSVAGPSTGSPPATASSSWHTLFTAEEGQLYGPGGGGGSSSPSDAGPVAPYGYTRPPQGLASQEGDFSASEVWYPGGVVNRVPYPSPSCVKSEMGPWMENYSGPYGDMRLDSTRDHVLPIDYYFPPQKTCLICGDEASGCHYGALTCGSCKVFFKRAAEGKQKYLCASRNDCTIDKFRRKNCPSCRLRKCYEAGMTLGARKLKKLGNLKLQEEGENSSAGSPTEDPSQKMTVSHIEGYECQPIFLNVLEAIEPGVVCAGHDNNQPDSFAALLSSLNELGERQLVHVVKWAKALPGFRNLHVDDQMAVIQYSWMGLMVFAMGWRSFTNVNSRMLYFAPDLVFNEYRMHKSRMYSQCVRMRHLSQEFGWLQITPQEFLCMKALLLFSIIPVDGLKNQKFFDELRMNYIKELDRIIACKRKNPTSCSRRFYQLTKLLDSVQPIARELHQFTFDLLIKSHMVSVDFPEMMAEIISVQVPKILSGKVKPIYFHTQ
The assay can be described thus: Effective dose required to inhibit testosterone propionate-stimulated prostate weight gain by 50% […]. In kind it is tissue-based. As to conditions: Prostate gland.

Assay [2] has as its target T1, Androgen receptor (Rattus norvegicus). As to conditions: Prostate gland; filed as agonist.
The species named for the next assay is Rattus norvegicus. Description: Effective dose required for the compound to inhibit testosterone propionate-stimulated prostate weight gain by 50% […]. Format: functional. As to conditions: Prostate gland.

Molecules are shown by their SMILES.

By ED50 is commonly meant the midpoint of the dose-response relation. With `CC(=O)c1cc2cc3c(cc2o1)CC[C@@H]1[C@@H]3CC[C@]2(C)[C@@H](O)CC[C@@H]12`, it took a dose of 100 mg/kg to reach the 50% effect level in assay [1] (ED50).

`COC(=O)c1cc2c(o1)C[C@@H]1CCC3C4CC[C@H](O)[C@@]4(C)CCC3[C@@]1(C)C2` (stereo partly specified): the ED50 in assay [1] was above 100 mg/kg.

As to `CC[C@]1(O)CCC2C3CC[C@H]4Cc5oc(C(C)=O)cc5C[C@]4(C)C3CC[C@@]21C` (stereo partly specified), in assay [2], the ED50 entry was “Agonist”.

Regarding `CC(C)(C)C(=O)c1cc2c(o1)C[C@@H]1CCC3C4CC[C@H](O)[C@@]4(C)CCC3[C@@]1(C)C2` (stereo partly specified), the ED50 in assay [1] was above 100 mg/kg.

On to `C#C[C@]1(O)CCC2C3CC[C@H]4Cc5oc(C(=O)C(C)C)cc5C[C@]4(C)C3CC[C@@]21C` (stereo partly specified), for which the ED50 result in assay [2] was “Agonist”.

In assay [1], `C#C[C@]1(O)CCC2C3CC[C@H]4Cc5oc(C(N)=O)cc5C[C@]4(C)C3CC[C@@]21C` (stereo partly specified) yielded an ED50 of 56 mg/kg.

Consider `C[C@]12CCC3C(CC[C@H]4Cc5oc(C(=O)C6CCC6)cc5C[C@]34C)C1CC[C@@H]2O` (stereo partly specified), for which the ED50 entry in assay [2] was “Agonist”.

`C[C@]12CCC3C(CC[C@H]4Cc5oc(C(=O)O)cc5C[C@]34C)C1CC[C@@H]2O` (stereo partly specified) registered an ED50 in assay [1] above 100 mg/kg.

As to `COc1ccc(C(=O)c2cc3c(o2)C[C@@H]2CCC4C5CC[C@H](O)[C@@]5(C)CCC4[C@@]2(C)C3)cc1` (stereo partly specified), the ED50 in the assay listed under Rattus norvegicus is above 100 mg/kg.

For the compound `CC(=O)c1cc2c(o1)C[C@@H]1CCC3C(CC[C@@]4(C)C3CC[C@@H]4O)[C@H]1C2` (stereo partly specified), the ED50 result in assay [2] is “Agonist”.

Regarding `C[C@]12CCC3C(CC[C@H]4Cc5oc(C(=O)c6ccccc6)cc5C[C@]34C)C1CC[C@@H]2O` (stereo partly specified), in assay [1], the ED50 is above 100 mg/kg.

Turning to `C=C[C@]1(O)CCC2C3CC[C@H]4Cc5oc(C(C)=O)cc5C[C@]4(C)C3CC[C@@]21C` (stereo partly specified), the ED50 result in assay [2] is “Agonist”.

Turning to `CCC(=O)c1cc2c(o1)C[C@@H]1CCC3C4CC[C@H](O)[C@@]4(C)CCC3[C@@]1(C)C2` (stereo partly specified), in assay [1], the ED50 turned out to be 33 mg/kg.

In the case of `C#C[C@]1(O)CCC2C3CC[C@H]4Cc5oc(C(=O)C6CC6)cc5C[C@]4(C)C3CC[C@@]21C` (stereo partly specified), the ED50 entry in assay [2] is “Agonist”.

Take `CC(=O)c1cc2c(o1)C[C@@H]1CCC3C4CC[C@H](O)[C@@]4(C)CCC3[C@@]1(C)C2` (stereo partly specified): the ED50 result in assay [2] is “Agonist”.

Regarding `C#C[C@]1(O)CCC2C3CC[C@H]4Cc5oc(C(=O)CC)cc5C[C@]4(C)C3CC[C@@]21C` (stereo partly specified), it took a dose of 30 mg/kg to reach the 50% effect level in assay [1] (ED50).

With `C[C@]12CCC3C(CC[C@H]4Cc5oc(C=O)cc5C[C@]34C)C1CC[C@@H]2O` (stereo partly specified), the ED50 in assay [1] was above 100 mg/kg.

For the compound `C#C[C@]1(O)CCC2C3CC[C@H]4Cc5oc(C(=O)C(F)(F)F)cc5C[C@]4(C)C3CC[C@@]21C` (stereo partly specified), the ED50 result in assay [2] is “Agonist”.

`C#C[C@]1(O)CCC2C3CC[C@H]4Cc5oc(C(C)=O)cc5C[C@@H]4C3CC[C@@]21C` (stereo partly specified): in assay [1], it took a dose of 100 mg/kg to reach the 50% effect level (ED50).

As to `C[C@]12CCC3C(CC[C@H]4Cc5oc(C(=O)C(F)(F)F)cc5C[C@]34C)C1CC[C@@H]2O` (stereo partly specified), the ED50 entry in assay [2] is “Agonist”.

The compound `C[C@]12CCC3C(CC[C@H]4Cc5oc(C=O)cc5C[C@H]34)C1CC[C@@H]2O` (stereo partly specified) displayed an ED50 in assay [1] above 100 mg/kg.

Consider `C#C[C@]1(O)CCC2C3CC[C@H]4Cc5oc(C(=O)OC)cc5C[C@]4(C)C3CC[C@@]21C` (stereo partly specified), for which the ED50 in assay [1] was above 50 mg/kg.

`CC1(C(=O)c2cc3c(o2)C[C@@H]2CCC4C5CC[C@H](O)[C@@]5(C)CCC4[C@@]2(C)C3)CC1` (stereo partly specified): in assay [1], the ED50 is above 100 mg/kg.

Turning to `C#C[C@]1(O)CCC2C3CC[C@H]4Cc5oc(C=O)cc5C[C@]4(C)C3CC[C@@]21C` (stereo partly specified), the ED50 in assay [1] was found to be 100 mg/kg.

As for `C#C[C@]1(O)CCC2C3CC[C@H]4Cc5oc(C(=O)C(Cl)(Cl)Cl)cc5C[C@]4(C)C3CC[C@@]21C` (stereo partly specified), in assay [2], the ED50 result is “Agonist”.

In assay [1], `C[C@]12CCC3C(CC[C@H]4Cc5oc(C(=O)C6CC6)cc5C[C@]34C)C1CC[C@@H]2O` (stereo partly specified) showed an ED50 of 100 mg/kg.

Turning to `C#C[C@]1(O)CCC2C3CC[C@H]4Cc5oc(C(C)=O)cc5C[C@]4(C)C3CC[C@@]21C` (stereo partly specified), the ED50 in assay [1] is above 100 mg/kg.

Regarding `CC(C)C(=O)c1cc2c(o1)C[C@@H]1CCC3C4CC[C@H](O)[C@@]4(C)CCC3[C@@]1(C)C2` (stereo partly specified), in assay [2], the ED50 entry is “Agonist”.

As for `C#C[C@]1(O)CCC2C3CC[C@H]4Cc5oc(C(=O)O)cc5C[C@]4(C)C3CC[C@@]21C` (stereo partly specified), the ED50 in assay [1] is above 100 mg/kg.

In assay [1], `CCCC(=O)c1cc2c(o1)C[C@@H]1CCC3C4CC[C@H](O)[C@@]4(C)CCC3[C@@]1(C)C2` (stereo partly specified) came in with an ED50 above 75 mg/kg.

For the compound `C[C@]12CCC3C(CC[C@H]4Cc5occc5C[C@]34C)C1CC[C@@H]2O` (stereo partly specified), in assay [1], the ED50 was above 100 mg/kg.

The record behind these values is ChEMBL document CHEMBL1127426, “Androgen receptor affinity of 5'-acyl furanosteroids” (1994).
